{
  "source": "patent US20260207717A1",
  "about": "“METHODS FOR TREATING INFANTILE-ONSET POMPE DISEASE IN PEDIATRIC PATIENTS” (Amicus Therapeutics, Inc., priority 2022, published 2026)",
  "key": {"pediatric IOPD patient": {"system": "pediatric IOPD patient", "settings": "for LVEF / LVMI: 2 D"}, "[1]": {"test": "Thermostability assay using SYPRO Orange", "type": "physicochemical", "method": "The stability of ATB200 in acidic or neutral pH buffers was evaluated in a thermostability assay using SYPRO Orange, as the fluorescence of the dye increases when proteins denature. […] As summarized in Table 10, the addition of miglustat increased the melting temperature (Tm) of ATB200 by nearly 10° C."}, "clinical": {"test": "clinical", "settings": "human, in vivo", "method": "At 10Y7M of age, the blood of the patient was collected to gather pharmacokinetic (PK) data for their treatment that included weekly administration of 20 mg/kg ATB200 and 130 mg AT2221.\nBlood sampling of the patient was conducted to gather pharmacokinetic (PK) data for their treatment that included administration of 25 mg/kg ATB200 and 195 mg AT2221 biweekly.\nAt 12Y5M of age, the patient has been receiving ATB200 (20 mg/kg) and AT2221 (195 mg) biweekly for 1 year. […] At this time, the PK levels of both ATB200 and AT2221 were taken from the patient."}, "[2]": {"system": "pediatric patient with infantile Pompe disease", "test": "Example 16: pediatric IOPD patient switched from Myozyme to ATB200/AT2221", "type": "in vivo, human", "text": "A patient with severe infantile Pompe disease presented. The patient underwent a comprehensive physical examination, measurement of GAA enzyme activity, genetic testing of the GAA gene and muscle biopsy to establish the diagnosis.\nThe patient received the high-dose enzyme replacement therapy with Myozyme after diagnosis. The patient responded very poorly to therapy. Due to rapidly progressing Pompe disease and inadequate response to therapy, the patient's survival was at risk. For the patient, the opportunity arose to receive the new ATB200/AT2221 ERT via a compassionate use/Expanded Access Program (EAP).\nThe index patient has regular measurement of the urinary Glc4-levels since the change of the ERT to ATB200. The Glc4-levels were determined by an established method from the Duke University. The analysis of Glc4 is standardized as a butyl-4-aminobenzoate derivative using [^13C6] Glc4 as the internal standard (IS). The measurement is performed as ultra-performance liquid chromatography-tandem mass spectrometry (UPLC-MS/MS). The Glc4-values are then normalized to creatinine.\nThe patient presented with IOPD at 6 months and was started on the standard dose of Myozyme (20 mg/kg/bi-weekly). Due to the inadequate response to therapy, the dose was doubled just one month after the start of therapy in form of a weekly administration of Myozyme. […] But the cardiological situation deteriorated progressively.\nTherefore, just three months after initiation of therapy, the dose was again doubled to 40 mg/kg/weekly, so the patient received a total of four times the standard dose. With the intensification of ERT and cardiac therapy, the patient's condition initially stabilized. Nevertheless, over the next few months, the patient's general condition steadily deteriorated, and the patient decompensated, especially respiratory.\nThe patient was switched from Myozyme to ATB200/AT2221 after eight months of insufficient Myozyme therapy response. The patient was […] at the time of the therapy switch. The new therapy (via EAP) was initiated with the oral administration of 30 mg premedication AT2221 (Miglustat) one hour prior to enzyme administration. ATB200 was administered at a bi-weekly interval at a dosage of 20 mg/kg. In the further course of treatment, the dosage of premedication and ERT was repeatedly adjusted and optimized (see Table 22). Some actual dosages in Table 22 (e.g., 37 mg/kg and 34.5 mg/kg at 32 and 38 months, respectively) varied from the target dose (e.g., 30 mg/kg) to avoid waste of extra material left in vials.\nThe Gross Motor Function Measure 66 (GMFM 66) is used to quantify a patients' motor skills. The GMFM 66 is a worldwide standardized test developed and validated for children with cerebral palsy to measure the development of gross motor function over time. During testing 66 items are examined and a score from 0 to 100 points is possible."}, "CIMPR": {"molecular_target": "CIMPR (Homo sapiens, UniProt P11717)", "sequence (P11717 41-2491, species assumed)": "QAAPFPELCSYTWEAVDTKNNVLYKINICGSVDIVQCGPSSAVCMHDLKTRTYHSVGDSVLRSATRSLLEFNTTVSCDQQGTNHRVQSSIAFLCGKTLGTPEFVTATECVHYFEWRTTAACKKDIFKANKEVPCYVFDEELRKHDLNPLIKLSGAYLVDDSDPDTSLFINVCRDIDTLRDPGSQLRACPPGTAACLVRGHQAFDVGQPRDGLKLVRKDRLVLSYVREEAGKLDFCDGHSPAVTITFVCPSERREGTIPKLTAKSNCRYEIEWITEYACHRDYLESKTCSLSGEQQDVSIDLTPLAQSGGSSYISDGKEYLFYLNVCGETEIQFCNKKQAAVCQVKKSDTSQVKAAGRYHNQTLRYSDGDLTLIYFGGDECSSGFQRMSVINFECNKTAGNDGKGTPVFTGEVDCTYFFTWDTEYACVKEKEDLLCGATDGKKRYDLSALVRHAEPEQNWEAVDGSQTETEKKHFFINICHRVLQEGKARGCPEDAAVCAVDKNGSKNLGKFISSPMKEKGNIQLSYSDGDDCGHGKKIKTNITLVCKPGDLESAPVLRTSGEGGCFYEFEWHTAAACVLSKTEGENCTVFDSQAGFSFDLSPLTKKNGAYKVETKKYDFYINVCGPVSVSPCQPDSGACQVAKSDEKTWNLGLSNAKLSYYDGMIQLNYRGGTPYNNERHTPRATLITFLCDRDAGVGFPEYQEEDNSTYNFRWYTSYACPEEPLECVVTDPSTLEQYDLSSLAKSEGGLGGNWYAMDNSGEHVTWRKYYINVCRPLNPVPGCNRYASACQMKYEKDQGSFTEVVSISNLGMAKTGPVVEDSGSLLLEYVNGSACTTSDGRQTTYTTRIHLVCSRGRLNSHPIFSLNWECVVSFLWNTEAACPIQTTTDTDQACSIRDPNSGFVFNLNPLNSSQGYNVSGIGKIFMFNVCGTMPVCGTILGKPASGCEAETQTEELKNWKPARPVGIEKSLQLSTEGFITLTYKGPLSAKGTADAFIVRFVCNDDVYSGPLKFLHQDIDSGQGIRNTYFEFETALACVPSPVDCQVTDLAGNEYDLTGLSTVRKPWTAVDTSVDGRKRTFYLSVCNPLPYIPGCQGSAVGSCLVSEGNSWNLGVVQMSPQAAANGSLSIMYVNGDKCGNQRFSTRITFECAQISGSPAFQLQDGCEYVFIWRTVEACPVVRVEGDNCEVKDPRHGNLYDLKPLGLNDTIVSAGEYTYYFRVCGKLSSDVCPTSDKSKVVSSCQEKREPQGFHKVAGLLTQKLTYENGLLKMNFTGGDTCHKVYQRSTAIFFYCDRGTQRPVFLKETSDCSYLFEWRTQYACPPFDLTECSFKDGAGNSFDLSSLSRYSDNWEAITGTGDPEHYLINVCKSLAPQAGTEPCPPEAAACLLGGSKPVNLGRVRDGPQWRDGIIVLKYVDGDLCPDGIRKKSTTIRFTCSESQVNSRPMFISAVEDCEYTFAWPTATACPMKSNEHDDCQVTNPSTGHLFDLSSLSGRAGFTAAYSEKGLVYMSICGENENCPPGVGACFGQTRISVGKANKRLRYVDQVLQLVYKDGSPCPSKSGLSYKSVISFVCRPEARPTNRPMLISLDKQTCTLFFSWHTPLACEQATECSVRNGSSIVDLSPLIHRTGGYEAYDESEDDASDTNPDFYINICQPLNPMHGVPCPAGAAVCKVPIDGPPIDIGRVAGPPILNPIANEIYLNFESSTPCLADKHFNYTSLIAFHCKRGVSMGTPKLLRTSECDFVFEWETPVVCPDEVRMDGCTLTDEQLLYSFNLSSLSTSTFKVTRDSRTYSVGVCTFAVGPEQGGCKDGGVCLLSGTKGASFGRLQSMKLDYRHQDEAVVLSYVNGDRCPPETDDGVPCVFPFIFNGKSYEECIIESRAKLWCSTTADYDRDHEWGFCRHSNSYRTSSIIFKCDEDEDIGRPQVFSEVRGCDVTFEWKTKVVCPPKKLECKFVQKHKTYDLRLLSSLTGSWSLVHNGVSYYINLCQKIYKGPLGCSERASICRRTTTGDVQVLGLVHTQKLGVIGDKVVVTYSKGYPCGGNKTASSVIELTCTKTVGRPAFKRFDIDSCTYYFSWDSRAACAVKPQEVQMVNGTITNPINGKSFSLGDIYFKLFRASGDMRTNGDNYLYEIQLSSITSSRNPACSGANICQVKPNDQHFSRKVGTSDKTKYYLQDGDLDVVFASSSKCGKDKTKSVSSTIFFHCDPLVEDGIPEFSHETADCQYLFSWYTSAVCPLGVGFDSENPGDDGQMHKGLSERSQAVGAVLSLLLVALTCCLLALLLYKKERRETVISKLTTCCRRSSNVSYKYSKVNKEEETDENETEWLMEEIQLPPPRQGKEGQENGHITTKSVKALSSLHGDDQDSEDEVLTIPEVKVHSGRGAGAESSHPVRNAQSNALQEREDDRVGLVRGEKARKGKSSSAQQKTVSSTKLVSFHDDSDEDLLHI", "test": "CIMPR affinity chromatography (bound vs unbound rhGAA by GAA activity)", "type": "binding", "text": "Multiple batches of the rhGAA according to the disclosure were produced in shake flasks and in perfusion bioreactors using CHO cell line GA-ATB200, the product of which is referred to as “ATB200.” Weak anion exchange (“WAX”) liquid chromatography was used to fractionate ATB200 rhGAA according to terminal phosphate and sialic acid. Elution profiles were generated by eluting the ERT with increasing amount of salt. The profiles were monitored by UV (A280 nm).\nTo evaluate the ability of the conventional rhGAAs in MYOZYME® and LUMIZYME® to interact with the CIMPR, the two conventional rhGAA preparations were injected onto a CIMPR affinity column (which binds rhGAA having M6P groups) and the flow through collected. The bound material was eluted with a free M6 gradient. Fractions were collected in 96-well plate and GAA activity assayed by 4MU-α-glucosidase substrate. The relative amounts of unbound (flow through) and bound (M6P eluted) rhGAA were determined based on GAA activity and reported as the fraction of total enzyme. […] Indeed, only 27% of the rhGAA in MYOZYME® and 22% of the rhGAA in LUMIZYME® contained M6P that can be productive to target it to the CIMPR on muscle cells."}},
  "note": "Read-outs that look alike come from different tables or passages of the source.",
  "data": [
    {"substance": "ATB200: recombinant human acid α-glucosidase with a high content of N-glycans bearing mono-M6P and bis-M6P, produced from a GA-ATB200 cell line", "values": [
      {"measurement": "CK", "setting": "pediatric IOPD patient; AT2221 115 mg QW", "result": 1187, "unit": "U/L"},
      {"measurement": "Pro-BNP", "setting": "pediatric IOPD patient; AT2221 115 mg QW", "result": 44.29, "unit": "pg/mL"},
      {"measurement": "CK", "setting": "pediatric IOPD patient; ATB200 20 mg/kg QW", "result": 1834, "unit": "U/L"},
      {"measurement": "Glc4", "setting": "pediatric IOPD patient; ATB200 20 mg/kg QW", "result": 41.53, "unit": "mmol/mol CRE"},
      {"measurement": "Pro-BNP", "setting": "pediatric IOPD patient; ATB200 20 mg/kg QW", "result": 36.3, "unit": "pg/mL"},
      {"measurement": "Pro-BNP", "setting": "pediatric IOPD patient; ATB200 20 mg/kg q2w", "result": 151.5, "unit": "pg/mL"},
      {"measurement": "Glc4", "setting": "pediatric IOPD patient; ATB200 20 mg/kg, AT2221 130 mg", "result": 29.08, "unit": "mmol/mol CRE"},
      {"measurement": "Pro-BNP", "setting": "pediatric IOPD patient; ATB200 20 mg/kg, AT2221 130 mg", "result": 45.52, "unit": "pg/mL"},
      {"measurement": "Pro-BNP", "setting": "pediatric IOPD patient; ATB200 25 mg/kg QW", "result": 33.24, "unit": "pg/mL"},
      {"measurement": "LVEF", "setting": "pediatric IOPD patient; ATB200 25 mg/kg QW", "result": 60.3, "unit": "%"},
      {"measurement": "LVMI", "setting": "pediatric IOPD patient; ATB200 25 mg/kg QW", "result": 43.6, "unit": "g/m^2"},
      {"measurement": "CK", "setting": "pediatric IOPD patient; ATB200 30 mg/kg, AT2221 130 mg", "result": 1146, "unit": "U/L"},
      {"measurement": "Pro-BNP", "setting": "pediatric IOPD patient; ATB200 30 mg/kg, AT2221 130 mg", "result": 29.25, "unit": "pg/mL"},
      {"measurement": "LVEF", "setting": "pediatric IOPD patient; ATB200 30 mg/kg, AT2221 130 mg", "result": 57, "unit": "%"},
      {"measurement": "LVMI", "setting": "pediatric IOPD patient; ATB200 30 mg/kg, AT2221 130 mg", "result": 39.1, "unit": "g/m^2"},
      {"measurement": "CK", "setting": "pediatric IOPD patient; Change AT2221 to 115 mg QW", "result": 1277, "unit": "U/L"},
      {"measurement": "CK", "setting": "pediatric IOPD patient; Change ATB200 to 20 mg/kg QW", "result": 1674, "unit": "U/L"},
      {"measurement": "Glc4", "setting": "pediatric IOPD patient; Change ATB200 to 20 mg/kg QW", "result": 50.74, "unit": "mmol/mol CRE"},
      {"measurement": "LVEF", "setting": "pediatric IOPD patient; Change ATB200 to 20 mg/kg QW", "result": 61.1, "unit": "%"},
      {"measurement": "LVMI", "setting": "pediatric IOPD patient; Change ATB200 to 20 mg/kg QW", "result": 38, "unit": "g/m^2"},
      {"measurement": "CK", "setting": "pediatric IOPD patient; Change ATB200 to 25 mg/kg QW", "result": 1524, "unit": "U/L"},
      {"measurement": "Glc4", "setting": "pediatric IOPD patient; Change ATB200 to 25 mg/kg QW", "result": 34.85, "unit": "mmol/mol CRE"},
      {"measurement": "Pro-BNP", "setting": "pediatric IOPD patient; Change ATB200 to 25 mg/kg QW", "result": 231.9, "unit": "pg/mL"},
      {"measurement": "CK", "setting": "pediatric IOPD patient; Change ATB200 to 30 mg/kg QW", "result": 1661, "unit": "U/L"},
      {"measurement": "Glc4", "setting": "pediatric IOPD patient; Change ATB200 to 30 mg/kg QW", "result": 36.19, "unit": "mmol/mol CRE"},
      {"measurement": "Pro-BNP", "setting": "pediatric IOPD patient; Change ATB200 to 30 mg/kg QW", "result": 180.6, "unit": "pg/mL"},
      {"measurement": "CK", "setting": "pediatric IOPD patient; change to ATB200 20 mg/kg q2w", "result": "1393-1444 U/L"},
      {"measurement": "Glc4", "setting": "pediatric IOPD patient; change to ATB200 20 mg/kg q2w", "result": 32.58, "unit": "mmol/mol CRE"},
      {"measurement": "LVEF", "setting": "pediatric IOPD patient; change to ATB200 20 mg/kg q2w", "result": 41, "unit": "%"},
      {"measurement": "LVMI", "setting": "pediatric IOPD patient; change to ATB200 20 mg/kg q2w", "result": 42, "unit": "g/m^2"},
      {"measurement": "skin rash, dyspnea, cough, pale-like complexion", "setting": "pediatric IOPD patient; human, in vivo, 30 mg/kg", "result": "had not developed any skin rash, dyspnea, cough, or pale-like complexion"},
      {"measurement": "Tm", "setting": "[1]; pH 5.2", "result": 67.3, "unit": "°C"},
      {"measurement": "Tm", "setting": "[1]; pH 7.4", "result": 56.2, "unit": "°C"},
      {"measurement": "increase of melting temperature (Tm) by addition of miglustat", "setting": "[1]; pH 7.4", "result": "~10", "unit": "°C"},
      {"measurement": "Tm", "setting": "[1]; pH 7.4 + 10 μM miglustat", "result": 61.6, "unit": "°C"},
      {"measurement": "Tm", "setting": "[1]; pH 7.4 + 30 μM miglustat", "result": 62.9, "unit": "°C"},
      {"measurement": "Tm", "setting": "[1]; pH 7.4 + 100 μM miglustat", "result": 66.0, "unit": "°C"},
      {"measurement": "AUC relative to adult percentiles", "setting": "clinical", "result": "within the adult 10th-90th percentile"},
      {"measurement": "Cmax relative to adult percentiles", "setting": "clinical", "result": "within the adult 10th-90th percentile"},
      {"measurement": "GMFM 66 score", "setting": "[2]; 16.5 months of ATB200 therapy", "result": 17.0, "unit": "points"},
      {"measurement": "GMFM 66 score", "setting": "[2]; 24 months of ATB200 therapy", "result": 24.0, "unit": "points"},
      {"measurement": "GMFM 66 score", "setting": "[2]; 28 months of ATB200 therapy", "result": 29.3, "unit": "points"},
      {"measurement": "urinary Glc4 levels", "setting": "[2]; biweekly 20 mg/kg", "result": "remained relatively constant"},
      {"measurement": "urinary Glc4 levels", "setting": "[2]; dose increase to 25 mg/kg/bi-weekly and switch to weekly 30 mg/kg at 19 months of age", "result": "increase"},
      {"measurement": "urinary Glc4 levels", "setting": "[2]; since 32 months of age (FIG. 71)", "result": "decrease of the values to the initial level"},
      {"measurement": "rhGAA that binds to the CIMPR (contains M6P)", "setting": "CIMPR; fraction of total enzyme by GAA activity", "result": "more than 70%"},
      {"measurement": "CIMPR receptor binding", "setting": "CIMPR; purified ATB200 rhGAA from different production batches (FIG. 5)", "result": "≥ 70", "unit": "%"}
    ]}
  ]
}
